Source: US20150105252A1, “SUBSTITUTED PYRAZOLES AS HERBICIDES” (E I DU PONT DE NEMOURS AND COMPANY, priority 2013, published 2015)

What was measured:
ducksalad = assay: Test C flooded paddy test; assay type: in vivo, Heteranthera limosa; conditions: Flood
Excerpt: (§1) At time of treatment, test pots were flooded to 3 cm above the soil surface, treated by application of test compounds directly to the paddy water, and then maintained at that water depth for the duration of the test. Treated plants and controls were maintained in a greenhouse for 13 to 15 days, after which time all species were compared to controls and visually evaluated. […] A dash (-) response means no test result.

pigweed [1] = assay: Test A preemergence; assay type: in vivo, Amaranthus retroflexus; conditions: 0 to 100 scale
Outline: (§2)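 Visual injury ratings, 0 = no effect to 100 = complete control, taken about 10 days after treatment against untreated controls. Test chemicals, in a non-phytotoxic surfactant-containing solvent, were sprayed onto soil preemergence or onto one- to two-leaf plants (2–10 cm) postemergence, in loam–sand soil under greenhouse conditions.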

crabgrass, large [2] = assay: Test A preemergence; assay type: in vivo, Digitaria sanguinalis; conditions: 0 to 100 scale
Outline: as §2

velvetleaf [3] = assay: Test A postemergence; assay type: in vivo, Abutilon theophrasti
Outline: as §2

morningglory [4] = assay: Test A preemergence; assay type: in vivo, Ipomoea spp.; conditions: 0 to 100 scale
Outline: as §2

rice = assay: Test C flooded paddy test; assay type: in vivo, Oryza sativa; conditions: Flood
Outline: (§3)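 Under a constant 3 cm flood, test compounds went directly into the paddy water. Following 13 to 15 days of greenhouse growth, treated species and controls were compared by eye.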

wheat [5] = assay: Test A preemergence; assay type: in vivo, Triticum aestivum; conditions: 0 to 100 scale
Outline: as §2

barnyardgrass [6] = assay: Test A preemergence; assay type: in vivo, Echinochloa crus-galli; conditions: 0 to 100 scale
Outline: as §2

morningglory [7] = assay: Test A postemergence; assay type: in vivo, Ipomoea spp.
Outline: as §2

foxtail, giant [8] = assay: Test A postemergence; assay type: in vivo, Setaria faberii
Outline: as §2

wheat [9] = assay: Test A postemergence; assay type: in vivo, Triticum aestivum
Outline: as §2

barnyardgrass [10] = assay: Test C flooded paddy test; assay type: in vivo, Echinochloa crus-galli; conditions: Flood
Excerpt: as §1

velvetleaf [11] = assay: Test A preemergence; assay type: in vivo, Abutilon theophrasti; conditions: 0 to 100 scale
Outline: as §2

corn [12] = assay: Test A postemergence; assay type: in vivo, Zea mays
Outline: as §2

sedge, umbrella = assay: Test C flooded paddy test; assay type: in vivo, Cyperus difformis; conditions: Flood
Outline: as §3

corn [13] = assay: Test A preemergence; assay type: in vivo, Zea mays; conditions: 0 to 100 scale
Outline: as §2

crabgrass, large [14] = assay: Test A postemergence; assay type: in vivo, Digitaria sanguinalis
Outline: as §2

pigweed [15] = assay: Test A postemergence; assay type: in vivo, Amaranthus retroflexus
Outline: as §2

barnyardgrass [16] = assay: Test A postemergence; assay type: in vivo, Echinochloa crus-galli; conditions: Postemergence
Outline: as §2

foxtail, giant [17] = assay: Test A preemergence; assay type: in vivo, Setaria faberii; conditions: 0 to 100 scale
Outline: as §2

[18] = 31 g ai/ha, scale 0 to 100 (0 no effect, 100 complete control)
[19] = 62 g ai/ha, scale 0 to 100 (0 no effect, 100 complete control)
[20] = Preemergence, 500 g ai/ha, 0 no effect, 100 complete control
[21] = preemergence, 125 g ai/ha, visual injury, approx. 10 days
[22] = Postemergence, 500 g ai/ha, visual rating after approx. 10 days, 0 to 100 scale (0 no effect, 100 complete control)
[23] = postemergence, 125 g ai/ha, about 10 days, visual rating on 0 to 100 scale (0 no effect, 100 complete control)
[24] = Preemergence, 1000 g ai/ha, 0 no effect, 100 complete control
[25] = Postemergence, 1000 g ai/ha, visual rating after approx. 10 days, 0 to 100 scale (0 no effect, 100 complete control)
[26] = 1000 g ai/ha, visual rating after approx. 10 days, 0 to 100 scale (0 no effect, 100 complete control)

For `CCNC(=O)c1cc(C)n(Cc2cccc(OC(F)(F)F)c2)n1` [Compound 4], the “Plant response rating, Ducksalad” value (ducksalad; [18]) was 0, the “Plant response rating, Ducksalad” value (ducksalad; [19]) was 40 and the “Plant response rating, Ducksalad” value (ducksalad; 125 g ai/ha, scale 0 to 100) was 50. The “Plant response rating, Ducksalad” value (ducksalad; 250 g ai/ha, scale 0 to 100) was 60, the “Pigweed plant response rating” value (pigweed [1]; [20]) was 100 and the “Pigweed plant response rating” value (pigweed [1]; [21]) was 50. The “Crabgrass, Large plant response rating” value (crabgrass, large [2]; [20]) was 90, the “Crabgrass, Large plant response rating” value (crabgrass, large [2]; [21]) was 40 and the “Velvetleaf plant response rating” value (velvetleaf [3]; [22]) was 30. For the same compound, the “Velvetleaf plant response rating” value (velvetleaf [3]; [23]) was 10, the “Morningglory plant response rating” value (morningglory [4]; [20]) was 20 and the “Morningglory plant response rating” value (morningglory [4]; [21]) was 0. The “Plant response rating, Rice” value (rice; [18]) was 0, the “Plant response rating, Rice” value (rice; [19]) was 0 and the “Plant response rating, Rice” value (rice; 125 g ai/ha, scale 0 to 100) was 0. For the same compound, the “Plant response rating, Rice” value (rice; 250 g ai/ha, scale 0 to 100) was 0, the “Wheat plant response rating” value (wheat [5]; [21]) was 0 and the “Barnyardgrass plant response rating” value (barnyardgrass [6]; [20]) was 50. The “Barnyardgrass plant response rating” value (barnyardgrass [6]; [21]) was 0, the “Morningglory plant response rating” value (morningglory [7]; [22]) was 90 and the “Morningglory plant response rating” value (morningglory [7]; [23]) was 30. For the same compound, the “Foxtail, Giant plant response rating” value (foxtail, giant [8]; [22]) was 30, the “Foxtail, Giant plant response rating” value (foxtail, giant [8]; [23]) was 10 and the “Wheat plant response rating” value (wheat [9]; [22]) was 0. For the same compound, the “Wheat plant response rating” value (wheat [9]; [23]) was 0, the “Plant response rating, Barnyardgrass” value (barnyardgrass [10]; [18]) was 0 and the “Plant response rating, Barnyardgrass” value (barnyardgrass [10]; [19]) was 0. The “Plant response rating, Barnyardgrass” value (barnyardgrass [10]; 125 g ai/ha, scale 0 to 100) was 0, the “Plant response rating, Barnyardgrass” value (barnyardgrass [10]; 250 g ai/ha, scale 0 to 100) was 0 and the “Velvetleaf plant response rating” value (velvetleaf [11]; [20]) was 10. For the same compound, the “Velvetleaf plant response rating” value (velvetleaf [11]; [21]) was 0, the “Corn plant response rating” value (corn [12]; [22]) was 40 and the “Corn plant response rating” value (corn [12]; [23]) was 10. The “Plant response rating, Sedge, Umbrella” value (sedge, umbrella; [18]) was 0, the “Plant response rating, Sedge, Umbrella” value (sedge, umbrella; [19]) was 0 and the “Plant response rating, Sedge, Umbrella” value (sedge, umbrella; 125 g ai/ha, scale 0 to 100) was 0. For the same compound, the “Plant response rating, Sedge, Umbrella” value (sedge, umbrella; 250 g ai/ha, scale 0 to 100) was 60, the “Corn plant response rating” value (corn [13]; [20]) was 0 and the “Corn plant response rating” value (corn [13]; [21]) was 0. The “Crabgrass, Large plant response rating” value (crabgrass, large [14]; [22]) was 50, the “Crabgrass, Large plant response rating” value (crabgrass, large [14]; [23]) was 20 and the “Pigweed plant response rating” value (pigweed [15]; [22]) was 80. For the same compound, the “Pigweed plant response rating” value (pigweed [15]; [23]) was 70, the “Barnyardgrass plant response rating” value (barnyardgrass [16]; 125 g ai/ha, 0 to 100 scale, 0 no effect, 100 complete control) was 10 and the “Barnyardgrass plant response rating” value (barnyardgrass [16]; 500 g ai/ha, visual rating after approx. 10 days, 0 to 100 scale (0 no effect, 100 complete control)) was 40. For the same compound, the “Foxtail, Giant plant response rating” value (foxtail, giant [17]; [20]) was 60 and the “Foxtail, Giant plant response rating” value (foxtail, giant [17]; [21]) was 0.
`CCCc1cc(C(=O)NCC)nn1Cc1cccc(C(F)(F)F)c1` [Compound 29] was tested, and the “Plant response rating, Ducksalad” value (ducksalad; [18]) was 0, the “Plant response rating, Ducksalad” value (ducksalad; [19]) was 0 and the “Plant response rating, Ducksalad” value (ducksalad; 125 g ai/ha, scale 0 to 100) was 85. The “Plant response rating, Ducksalad” value (ducksalad; 250 g ai/ha, scale 0 to 100) was 85, the “Pigweed plant response rating” value (pigweed [1]; [24]) was 90 and the “Crabgrass, Large plant response rating” value (crabgrass, large [2]; [24]) was 100. For the same compound, the “Velvetleaf plant response rating” value (velvetleaf [3]; [25]) was 100, the “Morningglory plant response rating” value (morningglory [4]; [24]) was 60 and the “Plant response rating, Rice” value (rice; [18]) was 0. The “Plant response rating, Rice” value (rice; [19]) was 0, the “Plant response rating, Rice” value (rice; 125 g ai/ha, scale 0 to 100) was 0 and the “Plant response rating, Rice” value (rice; 250 g ai/ha, scale 0 to 100) was 0. The “Wheat plant response rating” value (wheat [5]; [24]) was 10, the “Barnyardgrass plant response rating” value (barnyardgrass [6]; [24]) was 50 and the “Morningglory plant response rating” value (morningglory [7]; [25]) was 90. The “Foxtail, Giant plant response rating” value (foxtail, giant [8]; [25]) was 90, the “Wheat plant response rating” value (wheat [9]; [25]) was 40 and the “Plant response rating, Barnyardgrass” value (barnyardgrass [10]; [18]) was 0. For the same compound, the “Plant response rating, Barnyardgrass” value (barnyardgrass [10]; [19]) was 0, the “Plant response rating, Barnyardgrass” value (barnyardgrass [10]; 125 g ai/ha, scale 0 to 100) was 0 and the “Plant response rating, Barnyardgrass” value (barnyardgrass [10]; 250 g ai/ha, scale 0 to 100) was 20. The “Velvetleaf plant response rating” value (velvetleaf [11]; [24]) was 40, the “Corn plant response rating” value (corn [12]; [25]) was 50 and the “Plant response rating, Sedge, Umbrella” value (sedge, umbrella; [18]) was 0. The “Plant response rating, Sedge, Umbrella” value (sedge, umbrella; [19]) was 0, the “Plant response rating, Sedge, Umbrella” value (sedge, umbrella; 125 g ai/ha, scale 0 to 100) was 75 and the “Plant response rating, Sedge, Umbrella” value (sedge, umbrella; 250 g ai/ha, scale 0 to 100) was 80. The “Corn plant response rating” value (corn [13]; [24]) was 0, the “Crabgrass, Large plant response rating” value (crabgrass, large [14]; [25]) was 70 and the “Pigweed plant response rating” value (pigweed [15]; [25]) was 100. The “Barnyardgrass plant response rating” value (barnyardgrass [16]; [26]) was 80 and the “Foxtail, Giant plant response rating” value (foxtail, giant [17]; [24]) was 80.
With `CCCc1cc(C(=O)NC2CC2)nn1Cc1cccc(C(F)(F)F)c1` [Compound 30] the “Plant response rating, Ducksalad” value (ducksalad; [18]) was 60, the “Plant response rating, Ducksalad” value (ducksalad; 125 g ai/ha, scale 0 to 100) was 80 and the “Plant response rating, Ducksalad” value (ducksalad; 250 g ai/ha, scale 0 to 100) was 100. The “Pigweed plant response rating” value (pigweed [1]; [24]) was 30, the “Crabgrass, Large plant response rating” value (crabgrass, large [2]; [24]) was 100 and the “Velvetleaf plant response rating” value (velvetleaf [3]; [25]) was 100. For the same compound, the “Morningglory plant response rating” value (morningglory [4]; [24]) was 60, the “Plant response rating, Rice” value (rice; [18]) was 0 and the “Plant response rating, Rice” value (rice; [19]) was 0. The “Plant response rating, Rice” value (rice; 125 g ai/ha, scale 0 to 100) was 0, the “Plant response rating, Rice” value (rice; 250 g ai/ha, scale 0 to 100) was 0 and the “Wheat plant response rating” value (wheat [5]; [24]) was 10. For the same compound, the “Barnyardgrass plant response rating” value (barnyardgrass [6]; [24]) was 90, the “Morningglory plant response rating” value (morningglory [7]; [25]) was 100 and the “Foxtail, Giant plant response rating” value (foxtail, giant [8]; [25]) was 100. For the same compound, the “Wheat plant response rating” value (wheat [9]; [25]) was 40, the “Plant response rating, Barnyardgrass” value (barnyardgrass [10]; [18]) was 0 and the “Plant response rating, Barnyardgrass” value (barnyardgrass [10]; [19]) was 0. The “Plant response rating, Barnyardgrass” value (barnyardgrass [10]; 125 g ai/ha, scale 0 to 100) was 0, the “Plant response rating, Barnyardgrass” value (barnyardgrass [10]; 250 g ai/ha, scale 0 to 100) was 20 and the “Velvetleaf plant response rating” value (velvetleaf [11]; [24]) was 30. For the same compound, the “Corn plant response rating” value (corn [12]; [25]) was 40, the “Plant response rating, Sedge, Umbrella” value (sedge, umbrella; [18]) was 0 and the “Plant response rating, Sedge, Umbrella” value (sedge, umbrella; [19]) was 0. The “Plant response rating, Sedge, Umbrella” value (sedge, umbrella; 125 g ai/ha, scale 0 to 100) was 0, the “Plant response rating, Sedge, Umbrella” value (sedge, umbrella; 250 g ai/ha, scale 0 to 100) was 80 and the “Corn plant response rating” value (corn [13]; [24]) was 20. The “Crabgrass, Large plant response rating” value (crabgrass, large [14]; [25]) was 90, the “Pigweed plant response rating” value (pigweed [15]; [25]) was 100 and the “Barnyardgrass plant response rating” value (barnyardgrass [16]; [26]) was 70. The “Foxtail, Giant plant response rating” value (foxtail, giant [17]; [24]) was 100.
